In series [1] the test system is Sprague Dawley rats. The experiment in a line: Urinary phosphate excretion in rats fed a high phosphorus diet (OLC+Tenapanor Combo Study, Example 1). The format is in vivo, rat. The settings on record: Days 9 to 11. As for the experimental part:
FIG. 1. Represents the Study Design of the OLC+Tenapanor Combo Study described in Example 1. The study consisted of acclimatization, randomization, in vivo study period, and termination. Animals were acclimated from Day-7 to Day-4. On study Day-1, animals were randomized into eight groups: one vehicle; one tenapanor (0.15 mg/kg); three oxylanthanum carbonate (OLC) (0.75%, 1.5%, and 3%); and three combination treatment with OLC and tenapanor (OLC 0.75%, 1.5%, and 3%+tenapanor 0.15 mg/kg). On study Day 1, animals were switched to high phosphorus diets. Animals were euthanized on Day 11 two hours post last dose. Legend: 1 Body weight and food intake were measured daily from study Day-3 until termination. 2 During the in vivo study period (Days 1 to 11), vehicle and tenapanor were dosed orally twice/day whereas OLC was incorporated into the diets. 3 Urine samples were collected on Days 9, 10, and 11 for phosphate measurements and blood samples were collected for serum phosphate and sodium measurements on day 11 after the final urine sampling. Sixty-four male Sprague Dawley rats of 9 weeks old (11 weeks by the end of the study) were fed standard chow one week prior to study start. On study day-1, animals were randomized into 8 study groups (n=8): 1) vehicle, 2) tenapanor 0.15 mg/kg, 3) Vehicle+OLC 0.75%, 4) Vehicle+OLC 1.5%, 5) Vehicle+OLC 3%, 6) tenapanor 0.15 mg/kg+OLC 0.75%, 7) tenapanor 0.15 mg/kg+OLC 1.5%, and 8) tenapanor 0.15 mg/kg+OLC 3%. Vehicle and tenapanor were dosed PO twice/day whereas OLC was incorporated into the diets. On study Day 1, all animals were switched to high phosphorus diets consisting of chow spiked with 0.4% inorganic phosphorus [(1:1 sodium:potassium salt-wt./wt.), 1.1% total phosphorus content] for the rest of the study. Body weight and food intake were measured daily from study Day-3 until termination. 24-hour urine samples were collected using metabolic cages on day 9, 10, and 11 for urinary P measurements. Mean urinary phosphate excretion for each animal from Days 9 to 11 were averaged by treatment group. While we examined effects separately in each OLC dose group, our primary analyses compared pooled results in the three OLC dose groups combined. We compared pooled results using one-way ANOVA followed by Games-Howell test, and individual groups with vehicle using one-way ANOVA followed by Dunnett's multiple comparison test. A threshold of p<0.05 was used to determine significant differences between groups. Statistical Package for the Social Sciences (SPSS) was used for all statistical analyses. The Bliss model of independence was employed to determine if the combination of OLC and tenapanor was independent, synergistic, or antagonistic. (Zhao W, et al. J Biomol Screen June 2014; 19 (5): 817-821). The Bliss model compares the predicted combination response, calculated using the complete additivity of probability theory based on the observed effect of each individual agent administered alone, with the observed effect of combination treatment. The mean percentage reduction in urinary phosphate excretion relative to vehicle by treatment group was calculated by averaging urinary phosphate excretion for each animal from Days 9 to 11. Paired t-tests were conducted to assess the statistical significance between observed and predicted results. 2-tailed p-values<0.05 are considered to be statistically significant.

The conditions of series [2]: clinical trials; % of patients; cited from earlier work.
Series [3] in a line: Body weight and food intake in the OLC+Tenapanor Combo Study (Example 1). The settings on record: rat, in vivo. How it is done: FIG. 1. Represents the Study Design of the OLC+Tenapanor Combo Study described in Example 1. The study consisted of acclimatization, randomization, in vivo study period, and termination. Animals were acclimated from Day-7 to Day-4. On study Day-1, animals were randomized into eight groups: one vehicle; one tenapanor (0.15 mg/kg); three oxylanthanum carbonate (OLC) (0.75%, 1.5%, and 3%); and three combination treatment with OLC and tenapanor (OLC 0.75%, 1.5%, and 3%+tenapanor 0.15 mg/kg). On study Day 1, animals were switched to high phosphorus diets. Animals were euthanized on Day 11 two hours post last dose. Legend: 1 Body weight and food intake were measured daily from study Day-3 until termination. 2 During the in vivo study period (Days 1 to 11), vehicle and tenapanor were dosed orally twice/day whereas OLC was incorporated into the diets. 3 Urine samples were collected on Days 9, 10, and 11 for phosphate measurements and blood samples were collected for serum phosphate and sodium measurements on day 11 after the final urine sampling. Sixty-four male Sprague Dawley rats of 9 weeks old (11 weeks by the end of the study) were fed standard chow one week prior to study start. […] Body weight and food intake were measured daily from study Day-3 until termination. […] The mean body weight (FIG. 2A) and food intake (FIG. 2B) were measured from Day 1 to 11.

[4] abbreviates: Games-Howell post-hoc, OLC = average of 0.75%, 1.5%, 3% in chow, tenapanor 0.15 mg/kg/po/bid.

On to `CN1Cc2c(Cl)cc(Cl)cc2[C@H](c2cccc(S(=O)(=O)NCCOCCOCCNC(=O)NCCCCNC(=O)NCCOCCOCCNS(=O)(=O)c3cccc([C@@H]4CN(C)Cc5c(Cl)cc(Cl)cc54)c3)c2)C1.Cl.Cl` [Tenapanor, 12,15-Dioxa-2,7,9-triazaheptadecanamide, 17-[[[3-[(4S)-6,8-dichloro-1,2,3,4-tetrahydro-2-methyl-4-isoquinolinyl]phenyl]sulphonyl]amino]-N-[2-[2-[2-[[[3-[(4S)-6,8-dichloro-1,2,3,4-tetrahydro-2-methyl-4-isoquinolinyl]phenyl]sulphonyl]amino]ethoxy]ethoxy]ethyl]-8-oxo-, hydrochloride (1:2)], for which the “mean urinary phosphate excretion lower compared to the vehicle group” value in series [1] (tenapanor 0.15 mg/kg PO bid, OLC pooled across 0.75, 1.5 and 3% in chow, n=8 per treatment group) was 8.5 mg/day. For the same compound, in series [1] (setting [4]), the “Mean Difference (A − B) in mean urinary phosphate excretion, Treatment Group (A) = Vehicle, (B) = labelled treatment” value came out at 8.510 mg/day; the “Mean Difference (A − B) in mean urinary phosphate excretion, Treatment Group (A) = labelled treatment, (B) = OLC” value was determined as 3.583 mg/day; the “Mean Difference (A − B) in mean urinary phosphate excretion, Treatment Group (A) = labelled treatment, (B) = OLC + Tenapanor” value is 19.543 mg/day; the “Mean Difference (A − B) in mean urinary phosphate excretion, Treatment Group (A) = labelled treatment, (B) = Vehicle” value was -8.510 mg/day. Further, in series [2], the “diarrhea observed in patients taking tenapanor” value was 53%. Also, the “food intake compared with vehicle” value in series [3] is “not significantly affected”.

Values taken from patent US20250228891A1, “COMBINATIONS CONTAINING OXYLANTHANUM CARBONATE FOR TREATING HYPERPHOSPHATEMIA” (UNICYCIVE THERAPEUTICS, INC., priority 2024, published 2025).
